Experimental data from publication PMC3469158, “Hesperidin-3′-O-Methylether Is More Potent than Hesperidin in Phosphodiesterase Inhibition and Suppression of Ovalbumin-Induced Airway Hyperresponsiveness” (Evidence-based Complementary and Alternative Medicine : eCAM, 2012).
Read-outs that look alike come from different tables or passages of the source.

Columns and labels:
PDE4 [1] = conditions: read-out: IC50 for PDE4 inhibition; cited from earlier work
[2] = tested on: xylazine/ketamine-induced anesthesia; conditions: administered s.c.; cited from earlier work
PDE1 = PDE1 activity in homogenate of guinea pig lungs or hearts ([3H]-cAMP/[3H]-cGMP two-step procedure); format: biochemical; conditions: guinea pig lung or heart homogenate; read-out: IC50 for PDE1 inhibition
Method: (§1) Activities of PDE1∼5 in the homogenate of guinea pig lungs or hearts were measured by a two-step procedure according to the previous method, using cAMP with [^3 H]-cAMP or cGMP with [^3 H]-cGMP as substrates. The enzyme preparation (25 μL) was incubated for 30 min at 37°C in a total assay volume of 100 μL containing 50 mM Tris-HCl (pH 7.4), 3 mM MgCl2, 1 mM dithiothreitol, 0.05% BSA, and 1 μM cAMP with 0.2 μCi [^3 H]-cAMP as a substrate alone or in the presence of 0.1 unit calmodulin with 10 μM CaCl2 or 5 μM cGMP, and 1 μM cGMP with 0.2 μCi [^3 H]-cGMP as another substrate alone or in the presence of 0.1 unit calmodulin with 10 μM CaCl2. […] The reagents and homogenate were mixed on ice, and the reaction was initiated by transferring the mixture to a water bath at 37°C. Following a 30 min incubation, the reaction was stopped by transferring the reaction vessel to a bath of boiling water for 3 min. After cooling on ice, 20 μL of a 1 mg/mL solution of Crotalus atrox snake venom was added to the reaction mixture, and the mixture was incubated at 37°C for 10 min. Unreacted [^3 H]-cAMP or [^3 H]-cGMP was removed by the addition of 500 μL of a 1-in-1 Tris-HCl (40 mM) buffer suspension of Dowex resin (1 × 2-400) with incubation on ice for 30 min. Each tube was then centrifuged at 3700 g for 2 min, and 100 μL of the supernatant was removed for liquid scintillation counting.

PDE4 [3] = test: PDE4 activity in homogenate of guinea pig lungs or hearts (PDE4L); format: biochemical; conditions: guinea pig lung or heart homogenate; read-out: IC50 for PDE4 inhibition (PDE4L value)
Method: as §1

cytokines in BALF = test: Cytokine levels in BALF of sensitized and challenged mice (flow cytometric CBA); format: in vivo, BABL/c mice
Method: (§2) According to the schedule (Figure 2), ten female BABL/c mice in each group were sensitized by an intraperitoneal (i.p.) injection of 20 μg of ovalbumin emulsified in 2.25 mg of an aluminum hydroxide gel, prepared from aluminum sulfate hexadecahydrate, in a total volume of 100 μL on days 0 and 14. Mice were challenged via the airway using 1% ovalbumin in saline for 30 min on days 28, 29, and 30 by ultrasonic nebulization. After the last ovalbumin challenge, AHR was assessed on day 32 (48 h after 1% ovalbumin provocation) in each group. Each group of mice was orally (p.o.) administered the vehicle (control), 30∼100 μmol/kg of hesperidin or 10∼100 μmol/kg of hesperidin-3′-O-methylether 2 h before and 6 and 24 h after ovalbumin provocation. For comparison, sham-treated mice were challenged with saline instead of 1% ovalbumin (nonchallenged). The vehicle, a mixture of DMSO : PEG 400 : saline (1 : 1 : 8, v/v), hesperidin, or hesperidin-3′-O-methylether was administered (p.o.) at a volume of 0.01 mL/g of body weight. AHR was assessed by barometric plethysmography using a whole-body plethysmograph (WBP) and analyzed using software of Life Science Suite P3 Analysis Modules (Gould, LDS Test and Measurement LLC, Valley View, OH, USA) in unrestrained animals. Mice were placed into the main chamber of the WBP, and the baseline enhanced pause (P enh) value was determined. Then mice were first nebulized with phosphate-buffered saline (PBS), and subsequently with increasing doses (6.25∼50 mg/mL) of methacholine for 3 min for each nebulization, followed by readings of breathing parameters for 3 min after each nebulization to determine P enh values. Twenty-four hours after P enh determination, these mice were anesthetized with pentobarbital (50 mg/kg, i.p.), and the lungs were lavaged via a tracheal tube with PBS (1 × 1.0 mL, 37°C). After lavage, blood was collected from the jugular vein and allowed to sit so that it would coagulate. The collected bronchoalveolar lavage fluid (BALF) and coagulated blood were respectively centrifuged at 630 g for 7 min and at 3700 g for 10 min at 4°C. After centrifugation, the BALF and serum supernatants were stored at −20°C until determinations of cytokines, including interleukin (IL)-2, IL-4, IL-5, tumor necrosis factor (TNF)-α, and interferon (IFN)-γ by flow cytometric methods using mouse Th1/Th2 cytokine CBA kits, and of a total immunoglobulin (Ig)E and IgG2a using ELISA kits (Pharmingen, San Diego, CA, USA) according to the respective recommendations of the manufacturers. Ovalbumin-specific IgE was measured as described previously. Wells were coated with 100 μL of ovalbumin (20 μg/mL) instead of the capture antibody. Levels are expressed in arbitrary units, where 1 arbitrary unit equals the optical density of the sample divided by the optical density of unchallenged mouse serum or BALF (standard). The BALF pellet was resuspended in ACK lysing buffer (1.658 g NH4Cl, 0.2 g KHCO3, and […] EDTA in 200 mL of water) to lyse the residual erythrocytes in each sample. The number of inflammatory cells was counted using a hemocytometer (Hausser Scientific, Horsham, PA, USA). Cytospin slides were stained and cell differentials were determined in a blinded fashion by counting at least 100 cells under light microscopy. All undetectable data (<1 pg/mL) of cytokines were taken as 0.5 pg/mL.

IL-4 = tested on: IL-4; set-up: method as in PMID 21287361; conditions: 10 mg/kg (16.38 μmol/kg, p.o.); similar animal model; cited from earlier work
[4] = tested on: IgE and IgG2a in serum and BALF; test: Total and ovalbumin-specific IgE and total IgG2a in serum and BALF (ELISA); format: in vivo, BABL/c mice
Method: as §2

[5] = tested on: duration of xylazine/ketamine-induced anesthesia; test: Xylazine/ketamine-induced anesthesia (surrogate of emesis); format: in vivo, BALB/c mice; conditions: 300 μmol/kg s.c., 1 h before anesthesia; mice
Method: According to a previously described method and modified by us, hesperidin, hesperidin-3′-O-methylether (each 300 μmol/kg, subcutaneously (s.c.)), or Ro 20-1724 (0.01∼1 μmol/kg, s.c.), a reference drug, was, respectively, injected into 8∼12-week-old female BALB/c mice 1, 1 or 0.25 h prior to an i.p. injection of xylazine (10 mg/kg)/ketamine (70 mg/kg). The vehicle (control) for hesperidin, hesperidin-3′-O-methylether, or Ro 20-1724 was a mixture of DMSO : PEG 400 : saline (1 : 1 : 8, v/v). After the loss of the righting reflex (i.e., when a mouse remained on its back and no longer spontaneously righted itself to a prone position), the duration of anesthesia was measured until its return as the endpoint.

[6] = tested on: high-affinity rolipram-binding sites (HARBSs), PDE4H; test: Displacement of [3H]-rolipram from high-affinity rolipram-binding sites of brain cell membranes (PDE4H); set-up: species or system guinea pig
Method: When the above-mentioned guinea pigs were sacrificed, the whole brains were removed and homogenized with a glass/Teflon homogenizer (Glas-Col, Terre Haute, IN, USA) in 10 volumes of cold medium (pH 6.5) containing 20 mM Bis-Tris, 2 mM benzamidine, 2 mM EDTA, 50 mM sodium chloride, 0.1 mM PMSF, and 1 mM dithiothreitol. At 4°C, the homogenate was centrifuged at 170 g for 5 min to remove connective tissues and blood vessels. The suspended homogenate was then recentrifuged at 40,000 g for 30 min to separate the cytosolic and particulate portions. The particulate portion was resuspended in a suspension at a concentration of 400 mg/mL (wet weight/volume), after washing three times with homogenizing buffer. The particulate portion mainly consisted of cell membranes. […] Briefly, the reaction buffer consisted of 50 mM Tris-HCl and 5 mM MgCl2 (pH 7.5). […] After 1 h, the reaction was terminated by moving the reaction vessel into crushed ice. Then the reaction mixture was transferred onto Whatman GF/B glass-fiber filters, which were soaked in a 0.3% polyethyleneimine solution in a mini-funnel.

[7] = tested on: inflammatory cells in BALF; test: Inflammatory cell counts in BALF of sensitized and challenged mice; format: in vivo, BABL/c mice
Method: as §2

PDE3 = PDE3 activity in homogenate of guinea pig lungs or hearts; format: biochemical; conditions: guinea pig lung or heart homogenate; read-out: IC50 for PDE3 inhibition
Method: as §1

[8] = tested on: airway hyperresponsiveness in ovalbumin-sensitized and challenged mice; test: Ovalbumin-induced airway hyperresponsiveness, Penh by whole-body plethysmography; format: in vivo, BABL/c mice; conditions: for Penh value at the baseline / Penh value with PBS nebulization: sensitized and challenged mice
Method: as §2

## COc1ccc([C@@H]2CC(=O)c3c(O)cc(O)cc3O2)cc1O [hesperetin]
PDE4 [1]
  IC50: 28.2 µM
[2]
  xylazine/ketamine-induced anesthesia: not influence

## CCOC(=O)C1=C[C@]2(CC)CCCN3CCc4c(n1c1ccccc41)[C@@H]32 [vinpocetine, reference compound]
PDE1
  IC50: 30.8 ± 1.1 µM

## COc1ccc([C@@H]2CC(=O)c3c(O)cc(O[C@@H]4O[C@H](CO[C@@H]5O[C@@H](C)[C@H](O)[C@@H](O)[C@H]5O)[C@@H](O)[C@H](O)[C@H]4O)cc3O2)cc1O [hesperidin]
PDE1
  IC50: > 100 µM
PDE4 [3]
  IC50: > 100 µM
Cytokines in BALF; 100 μmol/kg p.o.
  increase in level of TNF-α in BALF: significantly suppressed
  level of IFN-γ in BALF compared to the control: significantly enhanced
Cytokines in BALF; 30∼100 μmol/kg p.o.
  increases in levels of IL-2, IL-4, IL-5 in BALF: significantly suppressed
IL-4
  level of IL-4: insignificantly inhibit
[4]; 30 μmol/kg p.o.
  total and OVA-specific IgE levels in the serum and BALF: but not hesperidin, significantly suppressed
[4]; 100 μmol/kg p.o.
  levels of total and ovalbumin-specific IgE in the BALF and serum: significantly suppressed
  reduction of total IgG2a level in the serum: significantly reversed
[5]
  duration of xylazine/ketamine-induced anesthesia: Neither hesperidin nor hesperidin-3′-O-methylether (each 300 μmol/kg, s.c.) influenced the duration
[6]; 2 nM [3H]-rolipram, guinea pig brain cell membranes, read-out: EC50 (PDE4H) for displacing [3H]-rolipram binding
  EC50: > 300 µM
[6]; 300 μM, guinea pig brain cell membranes
  displacement of 2 nM [3H]-rolipram binding on HARBSs: 27.0 ± 1.4%
[6]; therapeutic ratio, EC50 (PDE4H) / IC50 (PDE4L)
  PDE4H/PDE4L ratio: 3
[7]; 30 μmol/kg p.o.
  numbers of all inflammatory cells examined in BALF: unaffected
[7]; 100 μmol/kg p.o.
  increases in numbers of total inflammatory cells, macrophages, lymphocytes, neutrophils, and eosinophils in BALF: significantly suppressed
PDE3
  IC50: > 100 µM
[8]; 30 μmol/kg p.o.
  suppression of AHR: but not hesperidin, significantly suppressed AHR
  Penh value at the baseline: 2.39 ± 0.06
  Penh value with PBS nebulization: 2.40 ± 0.05
[8]; 100 μmol/kg p.o.
  Penh value at the baseline: 2.41 ± 0.04
  Penh value with PBS nebulization: 2.39 ± 0.05
[8]; 100 μmol/kg p.o., vs control (vehicle)
  enhancement of Penh values induced by 25 and 50 mg/mL methacholine: significantly attenuated

## Cc1[nH]c(=O)c(C#N)cc1-c1ccncc1 [milrinone, reference compound]
PDE3
  IC50: 2.7 ± 0.8 µM
